Where a SMILES comes first, the peptide text is derived from it. The star is where a group is joined. X1 = O=C(O)c1ccc2c(c1)nc(OCCCCCCCCC(=O)*)c1ccncc12
Assays:
[1] = biological target: Mitogen-activated protein kinase 14 (Homo sapiens) (UniProt Q16539); test: Inhibition of human p38a MAPK assessed as residual activity at 1 uM in presence of [33P]ATP by filter binding assay relative to control
[2] = biological target: Protein kinase C gamma type (Homo sapiens) (UniProt P05129); test: Inhibition of human PKCgamma assessed as residual activity at 1 uM in presence of [33P]ATP by filter binding assay relative to control
[3] = biological target: Mitogen-activated protein kinase kinase kinase kinase 5 (Homo sapiens) (UniProt Q9Y4K4); test: Inhibition of human MAP4K5 assessed as residual activity at 1 uM in presence of [33P]ATP by filter binding assay relative to control
[4] = biological target: Calcium/calmodulin-dependent protein kinase type 1 (Homo sapiens) (UniProt Q14012); test: Inhibition of human CAMK1 assessed as residual activity at 1 uM in presence of [33P]ATP by filter binding assay relative to control
[5] = biological target: Homeodomain-interacting protein kinase 2 (Homo sapiens) (UniProt Q9H2X6); test: Inhibition of human HIPK2 assessed as residual activity at 1 uM in presence of 33P-ATP by filter-binding assay relative to control
[6] = biological target: Protein kinase C alpha type (Homo sapiens) (UniProt P17252); test: Inhibition of human PKCa assessed as residual activity at 1 uM in presence of [33P]ATP by filter binding assay relative to control
[7] = biological target: Inhibitor of nuclear factor kappa-B kinase subunit beta (Homo sapiens) (UniProt O14920); test: Inhibition of human IKKb assessed as residual activity at 1 uM in presence of [33P]ATP by filter binding assay relative to control
[8] = biological target: MAP kinase-activated protein kinase 3 (Homo sapiens) (UniProt Q16644); test: Inhibition of human MAPKAP-K3 assessed as residual activity at 1 uM in presence of [33P]ATP by filter binding assay relative to control
[9] = biological target: Serine/threonine-protein kinase PAK 4 (Homo sapiens) (UniProt O96013); test: Inhibition of human PAK4 assessed as residual activity at 1 uM in presence of [33P]ATP by filter binding assay relative to control
[10] = biological target: Mitogen-activated protein kinase kinase kinase 7 (Homo sapiens) (UniProt O43318); test: Inhibition of human TAK1 assessed as residual activity at 1 uM in presence of [33P]ATP by filter binding assay relative to control
[11] = biological target: Serine/threonine-protein kinase pim-3 (Homo sapiens) (UniProt Q86V86); test: Inhibition of human PIM3 assessed as residual activity at 1 uM in presence of [33P]ATP by filter binding assay relative to control
[12] = biological target: Serine/threonine-protein kinase PINK1, mitochondrial (Homo sapiens) (UniProt Q9BXM7); test: Inhibition of human PINK assessed as residual activity at 1 uM in presence of [33P]ATP by filter binding assay relative to control
[13] = species on record: Homo sapiens; test: Inhibition of human PHK assessed as residual activity at 1 uM in presence of [33P]ATP by filter binding assay relative to control
[14] = biological target: Serine/threonine-protein kinase Sgk1 (Homo sapiens) (UniProt O00141); test: Inhibition of human SGK1 assessed as residual activity at 1 uM in presence of [33P]ATP by filter binding assay relative to control
[15] = biological target: Mitogen-activated protein kinase 12 (Homo sapiens) (UniProt P53778); test: Inhibition of human P38g MAPK assessed as residual activity at 1 uM in presence of [33P]ATP by filter binding assay relative to control
[16] = biological target: Mitogen-activated protein kinase 11 (Homo sapiens) (UniProt Q15759); test: Inhibition of human P38b MAPK assessed as residual activity at 1 uM in presence of [33P]ATP by filter binding assay relative to control
[17] = biological target: Tyrosine-protein kinase SYK (Homo sapiens) (UniProt P43405); test: Inhibition of human SYK assessed as residual activity at 1 uM in presence of [33P]ATP by filter binding assay relative to control
[18] = biological target: CDK2/Cyclin A2 (Homo sapiens) (UniProt P24941+P20248); test: Inhibition of human CDK2/Cyclin A assessed as residual activity at 1 uM in presence of [33P]ATP by filter binding assay relative to control; format: protein-complex assay
[19] = species on record: Homo sapiens; test: Inhibition of human PKA assessed as residual activity at 1 uM in presence of [33P]ATP by filter binding assay relative to control
[20] = biological target: Serine/threonine-protein kinase tousled-like 1 (Homo sapiens) (UniProt Q9UKI8); test: Inhibition of human TLK1 assessed as residual activity at 1 uM in presence of 33P-ATP by filter-binding assay relative to control
[21] = biological target: Tau-tubulin kinase 1 (Homo sapiens) (UniProt Q5TCY1); test: Inhibition of human TTBK1 assessed as residual activity at 1 uM in presence of [33P]ATP by filter binding assay relative to control
[22] = biological target: Mitogen-activated protein kinase kinase kinase kinase 3 (Homo sapiens) (UniProt Q8IVH8); test: Inhibition of human MAP4K3 assessed as residual activity at 1 uM in presence of [33P]ATP by filter binding assay relative to control
[23] = biological target: Casein kinase II subunit alpha (Homo sapiens, UniProt P68400); test: Inhibition of CK2alpha (unknown origin) (1 to 335 residues) using 5-TAMRA-RADDSDDDDD as substrate after 30 mins by fluorescence imaging method
[24] = biological target: Ribosomal protein S6 kinase alpha-1 (Homo sapiens) (UniProt Q15418); test: Inhibition of human RSK1 assessed as residual activity at 1 uM in presence of 33P-ATP by filter-binding assay relative to control
[25] = biological target: Insulin receptor (Homo sapiens) (UniProt P06213); test: Inhibition of human IR assessed as residual activity at 1 uM in presence of [33P]ATP by filter binding assay relative to control
[26] = biological target: Serine/threonine-protein kinase pim-2 (Homo sapiens) (UniProt Q9P1W9); test: Inhibition of human PIM2 assessed as residual activity at 1 uM in presence of [33P]ATP by filter binding assay relative to control
[27] = biological target: CDK9/cyclin T1 (Homo sapiens) (UniProt O60563+P50750); test: Inhibition of human CDK9-CyclinT1 assessed as residual activity at 1 uM in presence of [33P]ATP by filter binding assay relative to control; format: protein-complex assay
[28] = biological target: High affinity nerve growth factor receptor (Homo sapiens) (UniProt P04629); test: Inhibition of human TrkA assessed as residual activity at 1 uM in presence of [33P]ATP by filter binding assay relative to control
[29] = biological target: Serine/threonine-protein kinase BRSK1 (Homo sapiens) (UniProt Q8TDC3); test: Inhibition of human BRSK1 assessed as residual activity at 1 uM in presence of 33P-ATP by filter-binding assay relative to control
[30] = biological target: Ephrin type-A receptor 4 (Homo sapiens) (UniProt P54764); test: Inhibition of human EPH-A4 assessed as residual activity at 1 uM in presence of [33P]ATP by filter binding assay relative to control
Sequence of Ephrin type-A receptor 4 (Homo sapiens) (P54764 whole entry): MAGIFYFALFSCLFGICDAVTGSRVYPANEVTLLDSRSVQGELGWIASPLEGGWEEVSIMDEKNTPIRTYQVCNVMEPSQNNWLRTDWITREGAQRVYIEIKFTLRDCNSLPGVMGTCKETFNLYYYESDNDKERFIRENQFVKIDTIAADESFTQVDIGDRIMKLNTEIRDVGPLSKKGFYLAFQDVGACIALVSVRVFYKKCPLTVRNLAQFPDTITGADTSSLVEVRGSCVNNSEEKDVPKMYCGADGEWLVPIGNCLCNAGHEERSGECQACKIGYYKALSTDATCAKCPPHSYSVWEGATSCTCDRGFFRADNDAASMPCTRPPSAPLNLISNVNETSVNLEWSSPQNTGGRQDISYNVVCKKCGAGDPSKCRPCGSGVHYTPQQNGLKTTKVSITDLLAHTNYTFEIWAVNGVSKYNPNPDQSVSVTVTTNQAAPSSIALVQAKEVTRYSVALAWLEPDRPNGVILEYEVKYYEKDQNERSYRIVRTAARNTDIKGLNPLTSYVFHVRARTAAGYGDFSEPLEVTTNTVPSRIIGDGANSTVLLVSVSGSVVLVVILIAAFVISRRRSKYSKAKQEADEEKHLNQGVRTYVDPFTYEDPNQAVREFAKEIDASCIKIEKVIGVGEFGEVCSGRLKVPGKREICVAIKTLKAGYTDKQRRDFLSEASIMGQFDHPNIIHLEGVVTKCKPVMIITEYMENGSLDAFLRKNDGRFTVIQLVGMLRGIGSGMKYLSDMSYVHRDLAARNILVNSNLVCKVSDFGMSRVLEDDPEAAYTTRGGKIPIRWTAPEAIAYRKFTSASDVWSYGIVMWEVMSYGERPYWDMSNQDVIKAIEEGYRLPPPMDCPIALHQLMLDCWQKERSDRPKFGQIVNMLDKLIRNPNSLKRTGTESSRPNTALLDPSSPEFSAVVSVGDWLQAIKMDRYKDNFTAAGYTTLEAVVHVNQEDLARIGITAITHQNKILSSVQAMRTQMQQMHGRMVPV

Sequence of Mitogen-activated protein kinase 12 (Homo sapiens) (P53778 whole entry): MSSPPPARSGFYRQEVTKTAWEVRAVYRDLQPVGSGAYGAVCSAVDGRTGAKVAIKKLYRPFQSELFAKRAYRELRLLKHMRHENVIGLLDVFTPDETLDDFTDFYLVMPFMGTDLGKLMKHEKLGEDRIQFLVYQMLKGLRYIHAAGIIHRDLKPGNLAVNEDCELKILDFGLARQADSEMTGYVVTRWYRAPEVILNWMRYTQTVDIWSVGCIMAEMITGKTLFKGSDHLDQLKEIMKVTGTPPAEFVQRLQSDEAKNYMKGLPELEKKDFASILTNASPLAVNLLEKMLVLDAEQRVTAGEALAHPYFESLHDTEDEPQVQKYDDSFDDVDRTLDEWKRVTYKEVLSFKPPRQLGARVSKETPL
Sequence of Serine/threonine-protein kinase PINK1, mitochondrial (Homo sapiens) (Q9BXM7 whole entry): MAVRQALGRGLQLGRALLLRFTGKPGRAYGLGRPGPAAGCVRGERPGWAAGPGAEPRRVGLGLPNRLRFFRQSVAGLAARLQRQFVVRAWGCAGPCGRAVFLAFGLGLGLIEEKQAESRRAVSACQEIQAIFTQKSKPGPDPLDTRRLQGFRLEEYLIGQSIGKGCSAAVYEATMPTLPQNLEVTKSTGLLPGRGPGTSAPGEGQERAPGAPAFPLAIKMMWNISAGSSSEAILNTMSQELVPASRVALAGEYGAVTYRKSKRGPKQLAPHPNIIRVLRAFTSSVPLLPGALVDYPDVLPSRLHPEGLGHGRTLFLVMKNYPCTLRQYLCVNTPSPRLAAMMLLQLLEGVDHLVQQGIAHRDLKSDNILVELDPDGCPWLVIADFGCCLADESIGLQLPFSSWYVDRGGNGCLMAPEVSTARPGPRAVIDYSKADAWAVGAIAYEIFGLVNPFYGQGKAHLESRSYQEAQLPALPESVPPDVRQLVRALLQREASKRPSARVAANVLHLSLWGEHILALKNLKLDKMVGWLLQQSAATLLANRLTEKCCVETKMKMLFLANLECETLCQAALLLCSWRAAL
Sequence of Casein kinase II subunit alpha (P68400 whole entry, the tested form may be a part): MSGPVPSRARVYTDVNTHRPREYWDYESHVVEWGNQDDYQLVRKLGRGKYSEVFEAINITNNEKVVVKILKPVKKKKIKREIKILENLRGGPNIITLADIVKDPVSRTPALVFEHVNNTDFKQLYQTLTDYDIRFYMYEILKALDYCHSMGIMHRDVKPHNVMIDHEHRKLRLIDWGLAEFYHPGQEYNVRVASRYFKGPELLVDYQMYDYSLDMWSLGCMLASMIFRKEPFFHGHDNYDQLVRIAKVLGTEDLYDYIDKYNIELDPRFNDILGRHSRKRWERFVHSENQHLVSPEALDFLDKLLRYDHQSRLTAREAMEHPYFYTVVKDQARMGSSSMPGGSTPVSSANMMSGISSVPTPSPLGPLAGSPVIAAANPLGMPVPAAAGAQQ
Sequence of High affinity nerve growth factor receptor (Homo sapiens) (P04629 33-796 limits assumed): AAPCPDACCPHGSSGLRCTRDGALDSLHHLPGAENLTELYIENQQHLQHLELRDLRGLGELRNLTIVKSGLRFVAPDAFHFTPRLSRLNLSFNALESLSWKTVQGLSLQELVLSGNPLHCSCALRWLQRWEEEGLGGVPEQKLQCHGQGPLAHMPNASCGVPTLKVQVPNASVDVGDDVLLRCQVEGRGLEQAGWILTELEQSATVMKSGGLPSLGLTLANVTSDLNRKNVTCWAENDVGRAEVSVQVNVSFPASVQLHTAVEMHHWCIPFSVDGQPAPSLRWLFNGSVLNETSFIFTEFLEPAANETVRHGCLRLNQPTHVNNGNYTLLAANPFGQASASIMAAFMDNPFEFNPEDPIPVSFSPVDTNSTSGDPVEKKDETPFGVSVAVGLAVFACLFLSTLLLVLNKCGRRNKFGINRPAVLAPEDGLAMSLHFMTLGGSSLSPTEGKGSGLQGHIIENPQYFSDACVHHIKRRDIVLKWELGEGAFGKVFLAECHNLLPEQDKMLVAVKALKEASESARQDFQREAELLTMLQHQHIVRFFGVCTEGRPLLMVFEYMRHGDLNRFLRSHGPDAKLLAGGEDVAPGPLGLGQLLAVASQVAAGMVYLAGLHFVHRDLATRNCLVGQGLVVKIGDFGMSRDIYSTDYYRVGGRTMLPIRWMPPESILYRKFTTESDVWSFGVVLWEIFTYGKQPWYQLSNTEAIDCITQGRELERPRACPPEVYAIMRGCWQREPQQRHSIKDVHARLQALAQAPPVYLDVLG
Sequence of Serine/threonine-protein kinase BRSK1 (Homo sapiens) (Q8TDC3 whole entry): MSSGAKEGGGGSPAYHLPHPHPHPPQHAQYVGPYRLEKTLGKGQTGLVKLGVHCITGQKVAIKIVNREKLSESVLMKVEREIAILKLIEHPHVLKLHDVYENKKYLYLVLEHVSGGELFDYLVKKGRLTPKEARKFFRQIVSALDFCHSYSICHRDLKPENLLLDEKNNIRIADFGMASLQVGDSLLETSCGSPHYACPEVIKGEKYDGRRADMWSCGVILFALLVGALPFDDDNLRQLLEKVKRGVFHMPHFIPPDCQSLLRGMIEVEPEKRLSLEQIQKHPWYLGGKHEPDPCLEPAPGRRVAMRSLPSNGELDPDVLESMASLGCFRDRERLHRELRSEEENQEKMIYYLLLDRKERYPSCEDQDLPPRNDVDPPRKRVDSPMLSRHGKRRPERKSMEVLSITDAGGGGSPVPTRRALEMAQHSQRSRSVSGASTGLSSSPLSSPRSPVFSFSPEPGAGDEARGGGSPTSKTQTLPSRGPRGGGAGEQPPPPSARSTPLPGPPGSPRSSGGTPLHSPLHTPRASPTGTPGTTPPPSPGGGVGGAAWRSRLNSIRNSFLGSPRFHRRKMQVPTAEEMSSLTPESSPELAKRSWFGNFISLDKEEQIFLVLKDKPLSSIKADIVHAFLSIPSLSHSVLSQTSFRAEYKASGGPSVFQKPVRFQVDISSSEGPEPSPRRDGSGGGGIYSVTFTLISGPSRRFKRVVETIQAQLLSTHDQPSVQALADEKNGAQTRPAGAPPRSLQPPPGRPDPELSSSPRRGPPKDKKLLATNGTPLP
Sequence of Calcium/calmodulin-dependent protein kinase type 1 (Homo sapiens) (Q14012 whole entry, looked up): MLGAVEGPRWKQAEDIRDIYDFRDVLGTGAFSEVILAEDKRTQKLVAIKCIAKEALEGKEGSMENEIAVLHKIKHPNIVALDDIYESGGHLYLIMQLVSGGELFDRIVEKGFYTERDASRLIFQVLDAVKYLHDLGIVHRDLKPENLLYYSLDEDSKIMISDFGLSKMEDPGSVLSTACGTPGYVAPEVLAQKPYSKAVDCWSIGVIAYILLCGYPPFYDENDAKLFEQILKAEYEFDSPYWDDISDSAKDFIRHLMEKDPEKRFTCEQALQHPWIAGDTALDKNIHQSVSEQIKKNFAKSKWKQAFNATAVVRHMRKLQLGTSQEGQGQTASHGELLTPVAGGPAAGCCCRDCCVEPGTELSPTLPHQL
Sequence of Serine/threonine-protein kinase pim-2 (Homo sapiens) (Q9P1W9 whole entry, looked up): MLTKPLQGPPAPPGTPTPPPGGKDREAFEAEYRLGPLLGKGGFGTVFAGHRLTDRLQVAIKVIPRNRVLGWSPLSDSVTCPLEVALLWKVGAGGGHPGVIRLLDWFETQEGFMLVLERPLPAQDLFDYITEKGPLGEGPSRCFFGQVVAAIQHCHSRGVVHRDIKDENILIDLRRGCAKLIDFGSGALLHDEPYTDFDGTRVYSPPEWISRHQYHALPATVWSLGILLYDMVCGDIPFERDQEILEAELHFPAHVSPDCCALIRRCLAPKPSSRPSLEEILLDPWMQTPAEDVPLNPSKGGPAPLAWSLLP

## NCCCC[C@H](NC(=O)[C@H](CC(=O)O)NC(=O)[C@H](CC(=O)O)NC(=O)[C@H](CC(=O)O)NC(=O)[C@H](CC(=O)O)NC(=O)[C@H](CC(=O)O)NC(=O)[C@H](CC(=O)O)NC(=O)CCCCCCCCOc1nc2cc(C(=O)O)ccc2c2cnccc12)C(=O)O (X1-DDDDDDK-OH)
[1]
  Activity: 89%
[2]
  Activity: 94%
[3]
  Activity: 87%
[4]
  Activity: 89%
[5]
  Activity: 5%
[6]
  Activity: 93%
[7]
  Activity: 81%
[8]
  Activity: 82%
[9]
  Activity: 107%
[10]
  Activity: 80%
[11]
  Activity: 84%
[12]
  Activity: 93%
[13]
  Activity: 97%
[14]
  Activity: 84%
[15]
  Activity: 107%
[16]
  Activity: 107%
[17]
  Activity: 84%
[18]
  Activity: 82%
[19]
  Activity: 94%
[20]
  Activity: 63%
[21]
  Activity: 97%
[22]
  Activity: 95%
[23]
  IC50: 4 nM
[24]
  Activity: 50%
[25]
  Activity: 85%
[26]
  Activity: 80%
[27]
  Activity: 108%
[28]
  Activity: 85%
[29]
  Activity: 63%
[30]
  Activity: 104%
